The subject of one assay is proteasome pathway. Briefly: Coupled in vitro transcription/translation of Insl6 using reticulocyte lysates with proteasome inhibition. The assay is classed as biochemical. The note with it: 5 μM, [35S] L-cysteine, FIG. 5E. The method, then: (§1) Based on the magnitude of difference in molecular weights between the two species (31-32 vs. 40 kDa), it was investigated whether Insl6 is ubiquinated. […] In contrast, the absence of the larger bands in a transcription/translation reaction using wheat germ extracts (FIG. 5C) supports the possibility that the Insl6 protein is ubiquinated. […] Briefly CHO cells stably expressing Insl6 were either exposed to vehicle (−) or 5 μM Clasto-Lactacystin-β-lactone (Clasto-L) (+) and cells harvested after 4 h (lanes A & B) or 24 h (lanes C & D). The cell lysates were Western blotted with anti-Insl6 antibody. To address te possibility that over-expression of Insl6 in the CHO cells may have facilitated aberrant ubiquination, the effect of inhibition of the proteasome pathway in a coupled in vitro transcriptiontranslation was investigated. The data obtained support the in vivo data showing that inhibition of the proteasome pathway results in decelerated rate of degradation of the Insl6 (FIG. 5E). Briefly, coupled in vitro transcription/translation of Insl6 using reticulocyte lysates performed in the presence of [^35S]

The test system of the next assay is proteosome pathway. As to the kind of experiment: Proteasome inhibition in CHO cells stably expressing recombinant Insl6, Western blot with anti-Insl6 antibody. Type of assay: cell-based, chinese hamster. The settings on record: 5 μM, cells harvested after 4 h or 24 h, FIG. 5D. The method, then: as §1
(Immunoblotting shows a protein as a band on a membrane.)

A further assay has as its target T1, PKG (Homo sapiens, UniProt Q13976).
T1 sequence (Q13976 1-671): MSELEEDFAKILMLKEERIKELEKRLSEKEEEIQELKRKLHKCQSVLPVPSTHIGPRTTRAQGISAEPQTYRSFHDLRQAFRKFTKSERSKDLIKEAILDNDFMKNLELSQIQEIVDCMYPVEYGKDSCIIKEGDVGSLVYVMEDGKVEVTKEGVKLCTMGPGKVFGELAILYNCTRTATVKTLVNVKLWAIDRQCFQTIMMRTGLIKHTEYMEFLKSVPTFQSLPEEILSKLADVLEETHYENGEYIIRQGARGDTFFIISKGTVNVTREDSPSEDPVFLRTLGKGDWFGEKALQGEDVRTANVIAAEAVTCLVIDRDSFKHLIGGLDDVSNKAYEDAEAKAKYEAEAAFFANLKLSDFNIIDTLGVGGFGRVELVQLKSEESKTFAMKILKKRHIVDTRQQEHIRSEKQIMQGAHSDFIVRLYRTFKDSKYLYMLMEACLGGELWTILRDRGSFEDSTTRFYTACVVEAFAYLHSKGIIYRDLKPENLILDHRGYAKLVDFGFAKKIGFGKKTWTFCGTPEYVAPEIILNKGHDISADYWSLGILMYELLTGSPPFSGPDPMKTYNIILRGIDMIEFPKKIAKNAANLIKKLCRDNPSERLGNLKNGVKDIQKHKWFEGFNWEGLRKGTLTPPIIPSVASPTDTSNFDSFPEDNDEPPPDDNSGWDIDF
The note with it: no effect on PKG; cited from earlier work.

The next assay concerns the target PKA (Homo sapiens, UniProt P17612). The note with it: vendor Tocris; cited from earlier work.
For the next assay, the target named is PKC. The note with it: no effect on PKC; cited from earlier work.
For assay [1], the system named is rat primary Sertoli cells. Briefly: Tyrosine phosphorylation profile of rat primary Sertoli cell proteins by Western blotting. The note with it: serum-deprived rat primary Sertoli cells, recombinant Insl6 in serum-free milieu. Type of assay: cell-based. The text has this:
Although Sertoli cell lines are useful tools for investigating Sertoli cell function, they are important differences between primary Sertoli cells and established Sertoli cell lines. For example, compared to primary Sertoli cells, MSC-1 cells are relatively deficient in the FSH receptor. […] For this purpose, we exposed serum-deprived rat primary Sertoli cells to recombinant Insl6 in a serum-free milieu and determined the tyrosine phosphorylation profile of cellular proteins by Western blotting. […] Based on the premise that Insl6 belongs to the insulin family of proteins, the following canonical signaling pathways involving Insl6 action on Sertoli cells were investigated:
Isolation and culture of primary rat Sertoli cells—Rat Sertoli cells were isolated in our laboratory using a standardized protocol. […] The purity of the Sertoli cell isolate yielded by this protocol is >95% as determined by phase microscopy and alkaline phosphatase staining.
(§2) Western Blot Analysis—Western blot analyses were carried out by established protocols known by those skilled in art. […] Equality of loading and efficiency of transfer were assessed by Ponceau staining of the nitrocellulose filters and protein concentration determined by Bradford's method (BioRad). […]

The test system of a further assay is MSC-1 cells. As to the kind of experiment: Proliferation of MSC-1 cells, colorimetric viable cell assay. The assay is classed as cell-based, mouse. The settings on record: serum-deprived cells, varying time periods, conditioned medium from CHO cells expressing Insl6 vs non-transfected CHO; FIG. 12. The method, then:
To further investigate the significance of alteration in the tyrosine phosphorylation status of MSC-1 proteins, the effects of Insl6 on proliferation of MSC-1 were tested. For these experiments serum-deprived MSC-1 cells were exposed for varying time periods to serum-free conditioned medium from either CHO cells expressing Insl6 or from non-transfected CHO cells and the number of viable cells determined by a colorimetic assay (celltiter 96 Aqueous One Solution Cell Proliferation Assay; Promega, Madison, Wis., USA).

Assay [2] has as its system MSC-1 (mouse Sertoli cell line) cells. As to the kind of experiment: Tyrosine phosphorylation of MSC-1 cellular proteins, anti-phosphotyrosine Western blot. The settings on record: serum-deprived cells, ten minutes, serum-free conditioned medium from CHO cells expressing Insl6 vs non-transfected CHO; FIG. 11A. The assay is classed as cell-based.
Description: The effect of Insl6 on Sertoli cells was confirmed by exposing serum-deprived MSC-1 (mouse Sertoli cell line) cells to serum-free conditioned medium containing recombinant Insl6 secreted by the CHO cells stably expressing epitope-tagged Ins16. The effect of Insl6 on the phosphorylation status of MSC-1 cellular proteins was initially investigated. […] Serum-deprived MSC-1 cells were exposed for ten minutes to serum-free conditioned medium from either CHO cells expressing Insl6 (lane A, FIG. 11A) or from non-transfected CHO cells (lane B, FIG. 11A). Cell lysates were subjected to reducing SDS-PAGE and blotted with antiphphosphotyrosine antibodies. The specific protein bands showing increased phosphorylation in response to Insl6 are indicated by the diamond and star symbols respectively.
as §2

In the case of `CC(C)[C@H](O)[C@@]12NC(=O)[C@H](C)[C@@H]1OC2=O` [Clasto-Lactacystin-β-lactone], the “effect on rate of degradation of Insl6” value in the assay with proteasome pathway is recorded as “decelerated rate of degradation of Insl6”. Moreover, the “effect on half-life of Insl6” value with proteosome pathway is listed as “prolongation of the half-life of Insl6”.
Broadly, the Ki is the dissociation constant of the complex between target and ligand, obtained from inhibition or displacement. With `CCCCCCOC(=O)[C@]1(O)C[C@@H]2O[C@@]1(C)n1c3ccccc3c3c4c(c5c6ccccc6n2c5c31)C(=O)NC4` [KT 5720], the Ki on PKG was over 2000 nM; at PKA, 60 nM; on PKC, over 2000 nM.

B1: Insl6: recombinant His-myc epitope-tagged murine Insl6, insulin family protein, secreted by stably expressing CHO cells (protein)
chain: EEESRPRKLCGRHLLIEVIKLCGQSDWSRFEMEEQSPMTQFFPHYSRKGKAFNPHPSSSAWRRFTNPVPAGVSQKKGTHTWEPQSLPDYQFEKTELLPKARVFSYHSGKPYVKSVQLQKKSTNKMNTFRSLFWGNHSQRKRRGFADKCCVIGCTKEEMAVACLPFVDF
modifications: left off: small tags and cut ends
B1: the “effect on tyrosine phosphorylation of cellular proteins” value in assay [1] is “alters the tyrosine phosphorylation status of cellular proteins”; in assay [2], “specific tyrosine phosphorylation of proteins of molecular weights of approximately 55 and 40 kDa”. In addition, the effect on proliferation result in the assay on MSC-1 cells is given as “significantly inhibits the proliferation of MSC-1 in a time-dependent manner”.

The record behind these values is US20030229035A1, “Method of restoring ciliated cell motility” (priority 2001, published 2003).
